ChEMBL document CHEMBL2034837, “Discovery of Natural Phenols as G Protein-Coupled Receptor-35 (GPR35) Agonists” (ACS Med Chem Lett, 2012)
Active and inactive are the calls of the source. No cut-off for these calls is given here.

Columns and labels:
[1] = target: T1, G-protein coupled receptor 35 (Homo sapiens, UniProt Q9HC97); experiment: Agonist activity at GPR35 receptor in human HT-29 cells after 10 mins by dynamic mass redistribution assay; type: functional, cell-based
[2] = target: T1, G-protein coupled receptor 35; experiment: Agonist activity at GPR35 receptor in human U2OS cells coexpressing Gal4-VP16-TEV assessed as beta arrestin translocation after 5 hrs by beta lactamase reporter gene assay; type: functional, cell-based
[3] = target: T1, G-protein coupled receptor 35; experiment: Partial agonist activity at GPR35 receptor in human HT-29 cells after 10 mins by dynamic mass redistribution assay; type: functional, cell-based
[4] = target: T1, G-protein coupled receptor 35; experiment: Desensitization of GPR35 receptor in human HT-29 cells assessed as inhibition of zaprinast-induced dynamic mass redistribution after 10 mins; type: cell-based
[5] = target: T1, G-protein coupled receptor 35; experiment: Agonist activity at GPR35 receptor in human HT-29 cells assessed as shift in resonant wavelength of biosensor stimulation after 10 mins by dynamic mass redistribution assay relative to control; type: functional, cell-based
[6] = target: T1, G-protein coupled receptor 35; experiment: Agonist activity at GPR35 receptor in human U2OS cells coexpressing Gal4-VP16-TEV assessed as beta arrestin translocation after 5 hrs by beta lactamase reporter gene assay relative to control; type: functional, cell-based
[7] = target: T1, G-protein coupled receptor 35; experiment: Agonist activity at GPR35 receptor in human HT-29 cells at 8 uM after 10 mins by dynamic mass redistribution assay in the presence of SPB05142; type: functional, cell-based
[8] = target: T1, G-protein coupled receptor 35; experiment: Partial agonist activity at GPR35 receptor in human U2OS cells coexpressing Gal4-VP16-TEV assessed as beta arrestin translocation after 5 hrs by beta lactamase reporter gene assay; type: functional, cell-based
[9] = target: T1, G-protein coupled receptor 35; experiment: Agonist activity at GPR35 receptor in human HT-29 cells at 32 uM after 10 mins by dynamic mass redistribution assay in the presence of SPB05142; type: functional, cell-based
[10] = target: T1, G-protein coupled receptor 35; experiment: Agonist activity at GPR35 receptor in human HT-29 cells at 16 uM after 10 mins by dynamic mass redistribution assay in the presence of SPB05142; type: functional, cell-based
[11] = target: T1, G-protein coupled receptor 35; experiment: Agonist activity at GPR35 receptor in human HT-29 cells at 2 uM after 10 mins by dynamic mass redistribution assay in the presence of SPB05142; type: functional, cell-based
[12] = target: T1, G-protein coupled receptor 35; experiment: Agonist activity at GPR35 receptor in human HT-29 cells at 4 uM after 10 mins by dynamic mass redistribution assay in the presence of SPB05142; type: functional, cell-based

T1 sequence (Q9HC97 whole entry, the tested form may be a part): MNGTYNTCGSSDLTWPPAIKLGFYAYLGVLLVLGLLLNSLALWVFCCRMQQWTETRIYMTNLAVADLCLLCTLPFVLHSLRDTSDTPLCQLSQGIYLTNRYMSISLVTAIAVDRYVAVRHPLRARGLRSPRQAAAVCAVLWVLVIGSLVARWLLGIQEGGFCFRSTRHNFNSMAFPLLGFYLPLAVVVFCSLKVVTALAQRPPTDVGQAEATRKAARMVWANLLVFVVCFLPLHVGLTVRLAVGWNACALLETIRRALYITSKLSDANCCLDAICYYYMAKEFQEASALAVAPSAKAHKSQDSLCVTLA

O=c1c(O)c(-c2cc(O)c(O)c(O)c2)oc2cc(O)cc(O)c12 [MYRICETIN]
EC50 [1]: 3.02 µM
EC50 [2]: 14.7 µM
Activity [3]: Active
IC50 [4]: 2.12 µM
Efficacy [5]: 224 picometer
Ratio [6]: 9.2
Activity [7]: inactive

CCCOc1ccccc1-c1nc2[nH]nnc2c(=O)[nH]1
Efficacy [5]: 269 picometer

CC(C)=CCC1=C(O)C(=O)c2ccccc2C1=O [LAPACHOL]
EC50 [1]: 2.84 µM
EC50 [2]: 47.9 µM
IC50 [4]: 4.66 µM
Efficacy [5]: 328 picometer
Ratio [6]: 8.7
Activity [7]: inactive

Cc1c(C(=O)O)sc2c(Br)csc12
EC50 [2]: 17.6 µM
Efficacy [5]: 283 picometer
Ratio [6]: 13.9

O=C(O)c1cccnc1Nc1cccc(C(F)(F)F)c1
Activity [1]: Dose-dependent effect
Activity [8]: Active
Activity [9]: inactive
Activity [4]: Dose-dependent effect
Efficacy [5]: 260 picometer

O=C1C=C2CC3(O)COc4c(ccc(O)c4O)C3=C2C=C1O (stereo unspecified) [HEMATEIN]
EC50 [1]: 11.1 µM
EC50 [2]: 4.7 µM
IC50 [4]: 30.4 µM
Efficacy [5]: 391 picometer
Ratio [6]: 2.1
Activity [10]: inactive

O=c1c(O)c(-c2ccc(O)cc2O)oc2cc(O)cc(O)c12 [MORIN]
EC50 [1]: 1.33 µM
EC50 [2]: 11.2 µM
IC50 [4]: 1.6 µM
Efficacy [5]: 284 picometer
Ratio [6]: 9.8
Activity [7]: inactive

N#C/C(=C\c1ccc(O)cc1)C(=O)O [alpha-CYANO-4-HYDROXYCINNAMIC ACID]
EC50 [1]: 9.8 µM
EC50 [2]: 70.7 µM
IC50 [4]: 30.4 µM
Efficacy [5]: 331 picometer
Ratio [6]: 4
Activity [7]: inactive

O=c1oc2c(O)c(O)cc3c(=O)oc4c(O)c(O)cc1c4c23 [ELLAGIC ACID]
EC50 [1]: 0.11 µM
EC50 [2]: 2.96 µM
IC50 [4]: 0.1 µM
Efficacy [5]: 319 picometer
Ratio [6]: 3.4
Activity [11]: inactive

CCCCCc1c2c(cc(O)c1C(=O)O)OC(=O)c1c(cc(OC)cc1C(=O)CCCC)O2 [LOBARIC ACID]
EC50 [1]: 2.39 µM
EC50 [2]: 17.6 µM
IC50 [4]: 4.54 µM
Efficacy [5]: 317 picometer
Ratio [6]: 2
Activity [10]: inactive

O=c1c(O)c(-c2ccc(O)c(O)c2)oc2cc(O)cc(O)c12 [QUERCETIN]
EC50 [1]: 8.02 µM
EC50 [2]: 5.93 µM
Activity [3]: Active
Activity [9]: inactive
IC50 [4]: 15.4 µM
Efficacy [5]: 40 picometer
Ratio [6]: 2.3

CC(=O)NCCc1ccc(O)c(-c2c(O)c(O)c3c(c2O)C(=O)c2c(cc(O)c(C(=O)O)c2C(=O)O)C3=O)c1 [LACCACID ACID A]
EC50 [1]: 0.39 µM
EC50 [2]: 51.5 µM
Activity [9]: inactive
IC50 [4]: 0.39 µM
Efficacy [5]: 263 picometer
Ratio [6]: 3.5

O=c1cc(-c2ccccc2)oc2cc(O)c(O)c(O)c12 [BAICALEIN]
EC50 [1]: 10.3 µM
EC50 [2]: 22.7 µM
Activity [8]: Active
Activity [9]: inactive
IC50 [4]: 28.2 µM
Efficacy [5]: 248 picometer
Ratio [6]: 2.1

O=c1cc(-c2ccc(O)c(O)c2)oc2cc(O)cc(O)c12 [LUTEOLIN]
EC50 [1]: 7.24 µM
EC50 [2]: 3.2 µM
Activity [3]: Active
Activity [8]: Active
Activity [9]: inactive
IC50 [4]: 18.6 µM
Efficacy [5]: 68 picometer
Ratio [6]: 1.5

O=C(O)c1cc(O)c(=O)c2c(O)c(O)ccc2c1 [7-DESHYDROXYPYROGALLIN-4-CARBOXYLIC ACID]
EC50 [1]: 0.054 µM
EC50 [2]: 12.4 µM
IC50 [4]: 0.11 µM
Efficacy [5]: 233 picometer
Ratio [6]: 10.9
Activity [12]: inactive
